Results as given in patent publication US20260284208A1, “SYSTEM” (Oxford University Innovation Limited, priority 2023, published 2026).

Tests used:
Type in all cases: cell-based
[1] = biological target: IKZF3 130-189aa Q147W N149E Q150I (WEIS) ZF-GFP (Homo sapiens, UniProt Q96SW2+Q9UKT9, N149E/Q147W/Q150I); assay: GFP degradation flow cytometry assay, WEIS mutant ZF-eGFP
Experimental: (§1) The following method was used to generate lentiviral vectors for plasmids tested in library hit confirmation experiments: WT, QPIS, ANQS, APIS, HEIP, FEVP, WEIK, FDIP, AEVK, WNQS, WEIS, WNIQ, and WDIA. HEK293T cells were seeded into 6 well TC-treated cell culture dishes (Falcon) at 7×10^5 cells per well and incubated overnight at 37° C. and 5% CO2. […] In a separate tube 2 μL of PEIPro (Polyplus) was added to 100 μL of OptiMEM. The solution containing PEIPro and DNA was mixed and incubated at room temperature for 15 minutes to create the transfection mixture. The transfection mixture was added to cells and incubated for 5-6 hours at 37° C. and 5% CO2. After 2 days, the supernatant was harvested and fresh media was added to cells. 24 hours later, the supernatant was harvested and combined with the first supernatant harvested. Supernatant was centrifuged at 2000×g room temperature for 5 minutes, then the supernatant was filtered through a 0.45 μm cellulose acetate syringe filter and frozen at −80° C. […]
(§2) Jurkat cells were added to 96 well U-bottom assay plates (Falcon) at 1×10^5 cells per well and treated with compounds for 18 hours at 37° C. and 5% CO2. […] Data was analysed using FlowJo 10.8.1 (BD).
(§3) Having assessed the broad trends from this library screen, the sequences with the highest log FC values for A63 and B08 were selected and transduced into separate Jurkat cell lines. […]

[2] = biological target: AEVK-GFP in transduced Jurkat cells (Homo sapiens, UniProt Q96SW2+Q9UKT9, N149E/Q147A/Q150V/S154K); assay: Immunoblotting of AEVK ZF-eGFP; conditions: 10 μM; Jurkats transduced with AEVK-GFP
Experimental: Jurkat cells were added to T25 flasks (Falcon) at 2×10^6 cells per flask and were incubated with compounds for 18 hours at 37° C. and 5% CO2. Cells were lysed in buffer containing 9 M urea (Sigma), 75 mM Tris-HCl (Sigma), 0.15 M β-mercaptoethanol (Merck) and 10× diluted protease inhibitor cocktail (Merck). Cells lysates were sonicated for 10 seconds 3 times, centrifuged at 13000 rpm for 10 minutes at 4° C. and the supernatants were transferred into fresh tubes. Protein concentrations were measured using a Pierce BCA Protein Assay Kit (Thermo). Proteins were boiled in Laemmli sample buffer (Bio-Rad) for 5 minutes at 100° C. and separated by SDS-PAGE (7.5% Mini-PROTEAN TGX gels, Bio-Rad) and compared to the PageRuler Prestained Protein Ladder (Thermo). Semi-dry blotting was done on a Trans-Blot Turbo Transfer System (Bio-Rad) with the Trans-Blot Turbo RTA Mini 0.2 μm PVDF Transfer Kit (Bio-Rad) using the default mixed molecular weight mode. […] Membranes were scanned with a Bio-Rad ChemiDoc XRS+ Imaging System (Bio-Rad) and signal intensities were quantified using Image Lab software (Bio Rad). Band densitometry was assessed, normalized to vinculin bands, and reported as percentage of the DMSO control lane.

[3] = biological target: IKZF3 130-189aa Q147A N149E Q150V S154K (AEVK) ZF-GFP (Homo sapiens, UniProt Q96SW2+Q9UKT9, N149E/Q147A/Q150V/S154K); assay: GFP degradation flow cytometry assay, AEVK mutant ZF-eGFP
Experimental: as §1, §2, §3

[4] = from pDC50 values, 12 concentrations 5 nM-10 μM

Sequence of IKZF3 130-189aa Q147W N149E Q150I (WEIS) ZF-GFP (Q9UKT9 130-189 Q147W/N149E/Q150I): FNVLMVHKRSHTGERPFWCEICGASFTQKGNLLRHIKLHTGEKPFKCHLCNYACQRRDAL
Sequence of IKZF3 130-189aa Q147W N149E Q150I (WEIS) ZF-GFP (Q96SW2 whole entry): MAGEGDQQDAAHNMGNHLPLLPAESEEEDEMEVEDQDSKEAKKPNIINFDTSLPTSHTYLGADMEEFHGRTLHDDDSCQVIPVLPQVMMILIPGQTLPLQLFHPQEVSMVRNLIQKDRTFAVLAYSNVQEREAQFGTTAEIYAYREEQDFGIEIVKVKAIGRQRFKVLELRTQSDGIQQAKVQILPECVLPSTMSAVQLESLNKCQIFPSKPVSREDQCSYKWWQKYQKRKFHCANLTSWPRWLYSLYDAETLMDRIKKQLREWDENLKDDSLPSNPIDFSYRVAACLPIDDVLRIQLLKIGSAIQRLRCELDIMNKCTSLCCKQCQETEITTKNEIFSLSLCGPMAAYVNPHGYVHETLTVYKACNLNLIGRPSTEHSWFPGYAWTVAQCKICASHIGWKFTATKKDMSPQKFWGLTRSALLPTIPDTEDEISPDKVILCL
Sequence of IKZF3 130-189aa Q147A N149E Q150V S154K (AEVK) ZF-GFP (Q9UKT9 130-189 Q147A/N149E/Q150V/S154K): as the sequence (Q9UKT9 130-189 Q147W/N149E/Q150I) above, with W18A, I21V, S25K counted along it
Sequence of IKZF3 130-189aa Q147A N149E Q150V S154K (AEVK) ZF-GFP (Q96SW2 whole entry): as the sequence (Q96SW2 whole entry) above
Sequence of AEVK-GFP in transduced Jurkat cells (Q9UKT9 130-189 Q147A/N149E/Q150V/S154K): as the sequence (Q9UKT9 130-189 Q147W/N149E/Q150I) above, with W18A, I21V, S25K counted along it
Sequence of AEVK-GFP in transduced Jurkat cells (Q96SW2 whole entry): as the sequence (Q96SW2 whole entry) above

Row | SMILES | inhibition at up to 10 µM ([1]; 18 h, 10 μM, Jurkat, flow cytometry concentration curve, read-out: degradation of the top mutant ZF-GFP (WEIS)) [%] | selectivity compared to the WT ZF (WEIS) [1, 4] | degradation of AEVK-GFP (Western blot) [2] | percent degradation of ZF-GFP reporter at up to 10 µM ([3]; 18 h, 10 μM, Jurkat, flow cytometry concentration curve, read-out: degradation of the top mutant ZF-GFP (AEVK)) [%] | selectivity compared to the WT ZF (AEVK) [3, 4]
1 | CN1CCN(c2ccc3c(c2)C(=O)N(C2CCC(=O)NC2=O)C3=O)CC1 (centres unmarked) [B08, 2-(2,6-dioxopiperidin-3-yl)-5-(4-methylpiperazin-1-yl)isoindoline-1,3-dione] | ~100 | around 30 × |  |  | 
2 | CC(C)(C)c1ccc2c(c1)C(=O)N(C1CCC(=O)NC1=O)C2=O (centres unmarked) [A63, 5-(tert-butyl)-2-(2,6-dioxopiperidin-3-yl)isoindoline-1,3-dione] |  |  | full degradation | ~100 | around 30 ×
